In ChEMBL document CHEMBL5620389, “Development of diphenylmethylpiperazine hybrids of chloroquinoline and triazolopyrimidine using Petasis reaction as new cysteine proteases inhibitors for malaria therapeutics” (Eur J Med Chem, 2023) one finds IC50 and Activity data, which are given here for 22 compounds.

pIC50: −log10 of the molar value. Active and inactive are the calls of the source.

The test system of data set [1] is Plasmodium falciparum. Put plainly: Antimalarial activity against chloroquine-sensitive Plasmodium falciparum 3D7 infected in RBC incubated for 50 hrs by SYBR green I staining based microplate reader assay. The settings on record: 3D7, Erythrocyte. The format is functional, organism-based.
A further data set relates to Erythrocyte. Description: Hemolytic activity in human RBC at 100 uM incubated for 2 hrs by microplate reader analysis. It counts as toxicity, cell-based.
Data set [2] has as its system Plasmodium falciparum. Description: Antimalarial activity against chloroquine-resistant Plasmodium falciparum W2 infected in RBC incubated for 50 hrs by SYBR green I staining based microplate reader assay. It counts as functional, organism-based. The settings on record: W2, Erythrocyte.
For a further data set, the target named is T1, Falcipain 2 (Plasmodium falciparum, UniProt Q9N6S8).
T1 sequence (Q9N6S8 whole entry): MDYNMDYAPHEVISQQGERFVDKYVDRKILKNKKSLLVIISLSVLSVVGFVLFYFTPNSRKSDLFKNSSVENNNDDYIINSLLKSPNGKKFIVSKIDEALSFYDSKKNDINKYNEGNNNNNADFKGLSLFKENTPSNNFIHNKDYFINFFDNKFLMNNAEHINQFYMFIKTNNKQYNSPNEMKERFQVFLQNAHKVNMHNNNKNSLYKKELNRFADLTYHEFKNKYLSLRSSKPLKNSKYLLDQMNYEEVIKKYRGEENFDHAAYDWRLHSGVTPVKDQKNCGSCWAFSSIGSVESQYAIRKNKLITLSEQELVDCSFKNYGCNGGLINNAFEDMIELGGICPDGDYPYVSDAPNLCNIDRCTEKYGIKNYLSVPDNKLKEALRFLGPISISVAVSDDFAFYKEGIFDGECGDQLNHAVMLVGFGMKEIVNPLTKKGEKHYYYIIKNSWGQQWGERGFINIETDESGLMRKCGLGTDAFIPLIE
Put plainly: Inhibition of Plasmodium falciparum FP2 using Z-Leu-Arg-AMC as substrate preincubated for 30 mins followed by substrate addition and measured for 30 mins by spectrofluorometer analysis.

The next data set deals with T2, Falcipain-3 (Plasmodium falciparum 3D7, UniProt Q8IIL0).
T2 sequence (Q8IIL0 whole entry): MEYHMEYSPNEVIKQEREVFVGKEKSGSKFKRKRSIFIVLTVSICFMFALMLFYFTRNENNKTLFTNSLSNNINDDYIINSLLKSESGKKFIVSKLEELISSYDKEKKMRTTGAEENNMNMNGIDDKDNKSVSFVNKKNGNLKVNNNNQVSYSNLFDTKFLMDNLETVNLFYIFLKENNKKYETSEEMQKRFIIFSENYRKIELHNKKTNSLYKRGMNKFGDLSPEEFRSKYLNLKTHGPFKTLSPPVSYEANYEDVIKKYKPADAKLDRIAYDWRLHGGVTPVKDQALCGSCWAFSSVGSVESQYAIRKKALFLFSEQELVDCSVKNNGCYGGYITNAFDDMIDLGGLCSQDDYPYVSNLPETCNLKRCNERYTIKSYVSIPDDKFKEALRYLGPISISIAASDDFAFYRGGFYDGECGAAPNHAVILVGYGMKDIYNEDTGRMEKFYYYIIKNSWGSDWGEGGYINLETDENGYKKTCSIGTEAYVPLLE
Put plainly: Inhibition of Plasmodium falciparum FP3 using Z-Leu-Arg-AMC as substrate preincubated for 30 mins followed by substrate addition and measured for 30 mins by spectrofluorometer analysis.

Data set [3] concerns Plasmodium falciparum. Description: Antiplasmodial activity against synchronized Plasmodium falciparum 3D7 assessed as arrest in parasite development at trophozoite stage at 3 times IC50 after 24 to 48 hrs by Giesma-staining based light microscopic analysis. The settings on record: time 24-48 hrs. The format is functional, organism-based.
Data set [4] can be described thus: Cytotoxicity against African green monkey Vero cells at 1000 uM. The settings on record: chlorocebus sabaeus. It counts as toxicity, cell-based.
Data set [5] is described as follows: Cytotoxicity against human […] cells incubated for 24 hrs by MTT assay. The format is toxicity, cell-based. On the technique in general: Tetrazolium assays rely on reduction of a dye to a coloured formazan, in cell work by metabolically active cells.
Data set [6] relates to Plasmodium falciparum. Put plainly: Antimalarial activity against Plasmodium falciparum K1. The format is functional, organism-based.
The test system of data set [7] is Plasmodium falciparum. Put plainly: Antimalarial activity against Plasmodium falciparum 3D7. The format is functional, organism-based.
Data set [8] has as its system Plasmodium falciparum. Put plainly: Antimalarial activity against chloroquine-sensitive Plasmodium falciparum 3D7 incubated for 72 hrs by MSF assay. The format is functional, organism-based. The settings on record: 3D7, 72 h.
For data set [9], the system named is Plasmodium falciparum. Put plainly: Antimalarial activity against chloroquine-sensitive Plasmodium falciparum K1 incubated for 72 hrs by MSF assay. The format is functional, organism-based. The settings on record: K1, 72 h.
For data set [10], the system named is Plasmodium yoelii. Description: Antimalarial activity against Plasmodium yoelii N67 infected in Swiss mouse assessed as parasitemia suppression at 12.5 mg/kg/day, po measured on day 4. It counts as functional. The settings on record: time 4 day.
In data set [11] the test system is Plasmodium yoelii. Put plainly: Antimalarial activity against Plasmodium yoelii N67 infected in Swiss mouse assessed as curative rate at 12.5 mg/kg/day, po measured on day 28. The settings on record: time 28 day. The format is functional.

In the data set on Plasmodium falciparum [1], `Cc1cc(N2CCN(C(c3ccc(Cl)c(Cl)c3)c3ccccc3O)CC2)n2ncnc2n1` (stereo not drawn) gave a pIC50 of 5.48. Moreover, the Activity result in the data set with Erythrocyte is “Toxic”.
The corresponding values for `COc1cccc(C(c2ccc(OC(F)(F)F)cc2)N2CCN(c3ccnc4cc(Cl)ccc34)CC2)c1O` (stereo not drawn) are 5.83 and “Toxic”.
As for `Oc1ccccc1C(c1ccc(F)c(Cl)c1)N1CCN(c2ccnc3cc(Cl)ccc23)CC1` (stereo not drawn), the pIC50 was 5.92 in the data set with Plasmodium falciparum [1], 6.34 with Plasmodium falciparum [2], 5.06 on Falcipain 2 and 5.00 against Falcipain-3. Moreover, the result in the data set on Plasmodium falciparum [3] was Active. The Activity entry is “Non-Toxic” in [4] and “Toxic” in the data set on Erythrocyte. This compound also gave an IC50 at 24 h in [5] of 139 µM.
`COc1cccc(C(c2ccc(Cl)c(Cl)c2)N2CCN(c3ccnc4cc(Cl)ccc34)CC2)c1O` (stereo not drawn): the negative logarithm of the IC50 (pIC50) with Plasmodium falciparum [1] was 5.97; with Plasmodium falciparum [2] it was 6.18; on Falcipain 2, 5.34; at Falcipain-3, 5.23. Besides, the result in the data set on Plasmodium falciparum [3] was Active. The Activity result in data set [4] is listed as “Non-Toxic”; in the data set with Erythrocyte it was “Toxic”. This compound also registered a half-inhibitory concentration (IC50) at 24 h in data set [5] of 172 µM.
In turn, `Cc1ccc(C(c2ccccc2O)N2CCN(c3cc(C)nc4ncnn34)CC2)cc1` (stereo not drawn) had a pIC50 in the data set with Plasmodium falciparum [1] below 4.60. For the same compound, in the data set on Erythrocyte, the Activity entry is listed as “Toxic”.
As for `Oc1ccccc1C(c1ccc(OC(F)(F)F)cc1)N1CCN(c2ccnc3cc(Cl)ccc23)CC1` (stereo not drawn), the pIC50 is 6.13 in the data set on Plasmodium falciparum [1], 5.91 with Plasmodium falciparum [2], 5.32 against Falcipain 2 and 5.33 against Falcipain-3. The outcome in the data set on Plasmodium falciparum [3] was Active. For the same compound, the Activity result is “Non-Toxic” in data set [4] and “Toxic” with Erythrocyte. In addition, the IC50 at 24 h in data set [5] amounted to 104 µM.
For the compound `Oc1ccccc1C(c1ccc(F)c(F)c1)N1CCN(c2ccnc3cc(Cl)ccc23)CC1` (stereo not drawn), the negative logarithm of the IC50 (pIC50) in the data set on Plasmodium falciparum [1] is 6.13; in the data set with Plasmodium falciparum [2], 5.98; on Falcipain 2 it was 5.41; on Falcipain-3 it was 5.31. The result in the data set on Plasmodium falciparum [3] was Active. Moreover, the Activity entry in data set [4] is “Non-Toxic”; with Erythrocyte, “Toxic”. The compound further gave an IC50 at 24 h in [5] of 188 µM.
`CCN(CC)CCCC(C)Nc1ccnc2cc(Cl)ccc12` (stereo not drawn) [CHLOROQUINE]: the Activity result in the data set with Erythrocyte is “Toxic”.
As for `CC(C)(C)NCc1ccc(Nc2ccnc3cc(Cl)ccc23)cc1O` [GSK-369796], the negative-log IC50 (pIC50) is 7.89 in the data set on Plasmodium falciparum [6] and 7.96 with Plasmodium falciparum [7].
For `CCN1CCN(CC(CC(C)C)Nc2ccnc3cc(Cl)ccc23)CC1` (stereo not drawn), the negative-log IC50 (pIC50) was 7.24 in the data set with Plasmodium falciparum [8] and 7.01 in the data set with Plasmodium falciparum [9]. The Activity in the data set on Plasmodium yoelii [10] and with Plasmodium yoelii [11] was 100% each time.
In the data set on Plasmodium falciparum [1], `COc1cccc(C(c2ccc(C)cc2)N2CCN(c3ccnc4cc(Cl)ccc34)CC2)c1O` (stereo not drawn) showed a pIC50 of 5.78. Besides, the result in the data set with Plasmodium falciparum [3] was Active. In the data set with Erythrocyte, the Activity entry was “Toxic”.
Turning to `COc1cccc(C(c2ccc(F)c(Cl)c2)N2CCN(c3ccnc4cc(Cl)ccc34)CC2)c1O` (stereo not drawn), in the data set with Plasmodium falciparum [1], the pIC50 is 5.84. Besides, the Activity result in the data set with Erythrocyte is reported as “Toxic”.
As to `COc1cccc(C(c2ccc(F)c(F)c2)N2CCN(c3ccnc4cc(Cl)ccc34)CC2)c1O` (stereo not drawn), the negative-log IC50 (pIC50) is 5.88 in the data set with Plasmodium falciparum [1], 5.85 in the data set with Plasmodium falciparum [2], 4.98 against Falcipain 2 and 4.97 against Falcipain-3. The outcome in the data set on Plasmodium falciparum [3] was Active. Moreover, the Activity result in data set [4] was “Non-Toxic”; with Erythrocyte, “Toxic”. For the same compound, the IC50 at 24 h in data set [5] turned out to be 17.9 µM.
Compound `Oc1ccccc1C(c1ccc(C(F)(F)F)cc1)N1CCN(c2ccnc3cc(Cl)ccc23)CC1` (stereo not drawn) gave a negative-log IC50 (pIC50) in the data set with Plasmodium falciparum [1] of 5.85. Also, the Activity entry with Erythrocyte is “Toxic”.
In the case of `COc1cccc(C(c2ccc(C(F)(F)F)cc2)N2CCN(c3ccnc4cc(Cl)ccc34)CC2)c1O` (stereo not drawn), the negative logarithm of the IC50 (pIC50) in the data set on Plasmodium falciparum [1] was 6.28; in the data set with Plasmodium falciparum [2], 5.48; against Falcipain 2, 5.27; against Falcipain-3 it was 5.21. The result in the data set with Plasmodium falciparum [3] was Active. For the same compound, the Activity entry in data set [4] is recorded as “Non-Toxic”; with Erythrocyte, “Toxic”. In [5], this compound had a half-maximal inhibitory concentration (IC50) at 24 h of 32.9 µM.
Take `COc1ccc(C(c2ccccc2O)N2CCN(c3cc(C)nc4ncnn34)CC2)cc1` (stereo not drawn): the pIC50 in the data set on Plasmodium falciparum [1] is below 4.60. Moreover, in the data set on Erythrocyte, the Activity result is recorded as “Toxic”.
As to `Cc1ccc(C(c2ccccc2O)N2CCN(c3ccnc4cc(Cl)ccc34)CC2)cc1` (stereo not drawn), the pIC50 was 5.97 in the data set with Plasmodium falciparum [1], 5.89 with Plasmodium falciparum [2], 5.21 against Falcipain 2 and 5.17 at Falcipain-3. In addition, the result in the data set with Plasmodium falciparum [3] was Active. The values for the Activity entry (in data set [4]; with Erythrocyte) were “Non-Toxic” and “Toxic”, respectively. Besides, half-maximal inhibition in data set [5] (IC50 at 24 h) required 134 µM.
`Cc1cc(N2CCN(C(c3ccc(F)c(F)c3)c3ccccc3O)CC2)n2ncnc2n1` (stereo not drawn) gave a negative-log IC50 (pIC50) in the data set on Plasmodium falciparum [1] of 5.16. In addition, the Activity entry in the data set on Erythrocyte is “Toxic”.
Turning to `COc1ccc(C(c2cccc(OC)c2O)N2CCN(c3ccnc4cc(Cl)ccc34)CC2)cc1` (stereo not drawn), the pIC50 is 5.96 in the data set on Plasmodium falciparum [1], 5.59 in the data set with Plasmodium falciparum [2], 5.15 against Falcipain 2 and 5.11 against Falcipain-3. Moreover, the Activity result in data set [4] was “Non-Toxic”; in the data set on Erythrocyte, “Toxic”. For the same compound, the IC50 at 24 h in [5] came to 214 µM.
The compound `COc1cccc(C(c2ccc(F)cc2)N2CCN(c3ccnc4cc(Cl)ccc34)CC2)c1O` (stereo not drawn) had a negative logarithm of the IC50 (pIC50) in the data set with Plasmodium falciparum [1] of 5.81. In addition, the Activity entry in the data set on Erythrocyte is listed as “Toxic”.
The corresponding values for `Cc1cc(N2CCN(C(c3ccc(F)cc3)c3ccccc3O)CC2)n2ncnc2n1` (stereo not drawn) are 4.46 and “Toxic”.
The corresponding values for `COc1ccc(C(c2ccccc2O)N2CCN(c3ccnc4cc(Cl)ccc34)CC2)cc1` (stereo not drawn) are 5.79 and “Toxic”.

One may read the pIC50 as −log10 of the IC50, conventionally taken in molar units. Usually IC50 stands for the concentration that inhibits the measured activity by half.
